Assay results reported in PubChem BioAssay AID256 (DTP/NCI, 2004).
“And” between values parts separate entries of the source, which are not always exact repeats. Equal entries are not always repeated. Inconclusive results and toxic doses are left out.

Test system: CD2F1 mice, L1210 leukemia ip, survival T/C
Assay: NCI In Vivo Anticancer Drug Screen. Data for tumor model L1210 Leukemia (intraperitoneal) in CD2F1 (CDF1) mice
Settings: higher = longer survival
Outline: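 Each value reflects a quotient of treated over vehicle control outcomes in mice with a transplanted tumor.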

[1] = endpoint: mean survival time, dose: 100.0 mg/kg/injection, schedule: Q04DX003 (ip), vehicle: saline with Tween-80
[2] = endpoint: mean survival time, dose: 200.0 mg/kg/injection, schedule: Q04DX003 (ip), vehicle: saline with Tween-80
[3] = endpoint: mean survival time, dose: 400.0 mg/kg/injection, schedule: Q04DX003 (ip), vehicle: saline with Tween-80
[4] = endpoint: mean survival time, dose: 100.0 mg/kg/injection, schedule: Q01DX001 (ip), vehicle: saline
[5] = endpoint: mean survival time, dose: 100.0 mg/kg/injection, schedule: Q01DX009 (ip), vehicle: saline
[6] = endpoint: mean survival time, dose: 200.0 mg/kg/injection, schedule: Q01DX001 (ip), vehicle: saline
[7] = endpoint: mean survival time, dose: 200.0 mg/kg/injection, schedule: Q01DX009 (ip), vehicle: saline
[8] = endpoint: mean survival time, dose: 400.0 mg/kg/injection, schedule: Q01DX001 (ip), vehicle: saline
[9] = endpoint: mean survival time, dose: 400.0 mg/kg/injection, schedule: Q01DX009 (ip), vehicle: saline

In the case of `O=C(Cl)c1ccccc1/C=C/c1ccc([N+](=O)[O-])cc1`, the T/C (endpoint: mean survival time, dose: 100.0 mg/kg/injection, schedule: Q01DX001 (ip), vehicle: saline with Tween-80) was 105 % of control, the T/C (endpoint: mean survival time, dose: 200.0 mg/kg/injection, schedule: Q01DX001 (ip), vehicle: saline with Tween-80) was 103 % of control and the T/C (endpoint: mean survival time, dose: 400.0 mg/kg/injection, schedule: Q01DX001 (ip), vehicle: saline with Tween-80) was 96 % of control.
For `NP(=O)(OCCC(=O)OCc1ccccc1)N(CCCl)CCCl` (stereo not drawn), the T/C (endpoint: mean survival time, dose: 25.0 mg/kg/injection, schedule: Q01DX009 (ip), vehicle: Klucel (hydroxypropylcellulose) (HPC)) was 97 % of control, the T/C (endpoint: mean survival time, dose: 50.0 mg/kg/injection, schedule: Q01DX009 (ip), vehicle: Klucel (hydroxypropylcellulose) (HPC)) was 92 % of control and the T/C (endpoint: mean survival time, dose: 100.0 mg/kg/injection, schedule: Q01DX009 (ip), vehicle: Klucel (hydroxypropylcellulose) (HPC)) was 91 % of control. For the same compound, the T/C (endpoint: mean survival time, dose: 125.0 mg/kg/injection, schedule: Q01DX001 (ip), vehicle: Klucel (hydroxypropylcellulose) (HPC)) was 95 % of control, the T/C (endpoint: mean survival time, dose: 200.0 mg/kg/injection, schedule: Q01DX009 (ip), vehicle: Klucel (hydroxypropylcellulose) (HPC)) was 94 % of control and the T/C (endpoint: mean survival time, dose: 250.0 mg/kg/injection, schedule: Q01DX001 (ip), vehicle: Klucel (hydroxypropylcellulose) (HPC)) was 93 % of control. The T/C (endpoint: mean survival time, dose: 400.0 mg/kg/injection, schedule: Q01DX009 (ip), vehicle: Klucel (hydroxypropylcellulose) (HPC)) was 97 % of control, the T/C (endpoint: mean survival time, dose: 500.0 mg/kg/injection, schedule: Q01DX001 (ip), vehicle: Klucel (hydroxypropylcellulose) (HPC)) was 98 % of control and the T/C (endpoint: mean survival time, dose: 1000.0 mg/kg/injection, schedule: Q01DX001 (ip), vehicle: Klucel (hydroxypropylcellulose) (HPC)) was 95 % of control.
With `Nc1ccc(CSc2ccccc2)cc1F` the T/C [1] was 93 % of control, the T/C [2] was 92 % of control and the T/C [3] was 108 % of control.
With `N=c1nc2n(cc1F)[C@@H]1O[C@H](CO)[C@@H](O)[C@@H]1O2` the T/C (endpoint: mean survival time, dose: 17.0 mg/kg/injection, schedule: Q04DX003 (ip), vehicle: saline) was 119 % of control, the T/C (endpoint: mean survival time, dose: 25.0 mg/kg/injection, schedule: Q01DX009 (ip), vehicle: saline) was 155 % of control and the T/C (endpoint: mean survival time, dose: 50.0 mg/kg/injection, schedule: Q01DX009 (ip), vehicle: saline) was 162 % of control and 188 % of control. For the same compound, the T/C (endpoint: mean survival time, dose: 68.0 mg/kg/injection, schedule: Q04DX003 (ip), vehicle: saline) was 150 % of control, the T/C [4] was 110 % of control and the T/C [5] was 193 % of control and 250 % of control. The T/C [6] was 117 % of control, the T/C [7] was 224 % of control and 303 % of control and the T/C [8] was 120 % of control. For the same compound, the T/C [9] was 305 % of control and 331 % of control, the T/C (endpoint: mean survival time, dose: 800.0 mg/kg/injection, schedule: Q01DX009 (ip), vehicle: saline) was 239 % of control and the T/C (endpoint: median survival time, dose: 16.0 mg/kg/injection, schedule: Q01DX005 (ip), vehicle: saline) was 124 % of control. For the same compound, the T/C (endpoint: median survival time, dose: 256.0 mg/kg/injection, schedule: Q01DX005 (ip), vehicle: saline) was 216 % of control and the T/C (endpoint: median survival time, dose: 512.0 mg/kg/injection, schedule: Q01DX005 (ip), vehicle: saline) was 349 % of control.
For `Nc1cccc2cc3ccccc3[n+]([O-])c12`, the T/C [1] was 104 % of control, the T/C [2] was 108 % of control and the T/C [3] was 95 % of control.
For `CC(C)(C)OC(=O)C12CCCC(C(=O)OC(C)(C)C)(OO1)O2`, the T/C [4] was 95 % of control, the T/C [6] was 95 % of control and the T/C [8] was 101 % of control.
With `CNN(C)N=Nc1ccc(C(N)=O)cc1` the T/C (endpoint: mean survival time, dose: 19.75 mg/kg/injection, schedule: Q01DX009 (ip), vehicle: Klucel (hydroxypropylcellulose) (HPC)) was 110 % of control, the T/C (endpoint: mean survival time, dose: 39.5 mg/kg/injection, schedule: Q01DX009 (ip), vehicle: Klucel (hydroxypropylcellulose) (HPC)) was 118 % of control and the T/C (endpoint: mean survival time, dose: 79.0 mg/kg/injection, schedule: Q01DX009 (ip), vehicle: Klucel (hydroxypropylcellulose) (HPC)) was 93 % of control.
With `Nc1ccn(C2OC(CO)C(OP(=O)(O)O)C2O)c(=O)n1` (stereo not drawn) the T/C (endpoint: mean survival time, dose: 4.4 mg/kg/injection, schedule: Q03HX024 (ip), vehicle: saline) was 229 % of control, the T/C (endpoint: mean survival time, dose: 8.7 mg/kg/injection, schedule: Q03HX024 (ip), vehicle: saline) was 252 % of control and the T/C (endpoint: mean survival time, dose: 17.4 mg/kg/injection, schedule: Q03HX024 (ip), vehicle: saline) was 296 % of control. The T/C (endpoint: mean survival time, dose: 34.8 mg/kg/injection, schedule: Q03HX024 (ip), vehicle: saline) was 111 % of control, the T/C (endpoint: mean survival time, dose: 200.0 mg/kg/injection, schedule: Q01DX009 (oral), vehicle: saline) was 159 % of control and the T/C (endpoint: mean survival time, dose: 400.0 mg/kg/injection, schedule: Q01DX009 (oral), vehicle: saline) was 175 % of control.
In the case of `COC(=O)c1cn(C2OC(CO)C(O)C2O)c2ncnc(N)c12` (stereo not drawn), the T/C (endpoint: mean survival time, dose: 3.12 mg/kg/injection, schedule: Q01DX009 (ip), vehicle: water) was 104 % of control, the T/C (endpoint: mean survival time, dose: 6.25 mg/kg/injection, schedule: Q01DX009 (ip), vehicle: water) was 112 % of control and the T/C (endpoint: mean survival time, dose: 12.5 mg/kg/injection, schedule: Q01DX009 (ip), vehicle: water) was 122 % of control.
For `CC=C(C(=O)OCC)C(=O)OCC`, the T/C [4] was 95 % of control, the T/C [6] was 98 % of control and the T/C [8] was 107 % of control.
`Nc1cccc(NC=O)c1` was tested, and the T/C (endpoint: mean survival time, dose: 100.0 mg/kg/injection, schedule: Q04DX003 (ip), vehicle: Klucel (hydroxypropylcellulose) (HPC)) was 102 % of control.
`C=CC1CN2CCC1CC2C(O)c1ccnc2ccc(OC)cc12` (stereo not drawn) was tested, and the T/C (endpoint: mean survival time, dose: 18.75 mg/kg/injection, schedule: Q01DX009 (ip), vehicle: saline with Tween-80) was 105 % of control, the T/C (endpoint: mean survival time, dose: 37.5 mg/kg/injection, schedule: Q01DX009 (ip), vehicle: saline with Tween-80) was 101 % of control and the T/C (endpoint: mean survival time, dose: 75.0 mg/kg/injection, schedule: Q01DX009 (ip), vehicle: saline with Tween-80) was 103 % of control.
With `CCOC(OCC)n1ncnc1NC(=S)NCc1ccccc1` the T/C (endpoint: mean survival time, dose: 12.5 mg/kg/injection, schedule: Q01DX001 (ip), vehicle: carboxymethylcellulose (CMC)) was 100 % of control, the T/C (endpoint: mean survival time, dose: 25.0 mg/kg/injection, schedule: Q01DX001 (ip), vehicle: carboxymethylcellulose (CMC)) was 95 % of control and the T/C (endpoint: mean survival time, dose: 50.0 mg/kg/injection, schedule: Q01DX001 (ip), vehicle: carboxymethylcellulose (CMC)) was 93 % of control. The T/C (endpoint: mean survival time, dose: 100.0 mg/kg/injection, schedule: Q01DX001 (ip), vehicle: carboxymethylcellulose (CMC)) was 108 % of control and the T/C (endpoint: mean survival time, dose: 200.0 mg/kg/injection, schedule: Q01DX001 (ip), vehicle: carboxymethylcellulose (CMC)) was 91 % of control.
`Cc1ccc(C2=C(O)C(=O)C(c3ccc(C)cc3)C2=O)cc1` (stereo not drawn) was tested, and the T/C [1] was 93 % of control and the T/C [2] was 96 % of control.
In the case of `O=C1N[C@H]2[C@H](CS[C@H]2CCCCC(=O)N(CCP(c2ccccc2)c2ccccc2)CCP(c2ccccc2)c2ccccc2)N1`, the T/C (endpoint: median survival time, dose: 25.0 mg/kg/injection, schedule: Q01DX009 (ip), vehicle: Klucel (hydroxypropylcellulose) (HPC)) was 100 % of control and 107 % of control, the T/C (endpoint: median survival time, dose: 50.0 mg/kg/injection, schedule: Q01DX009 (ip), vehicle: Klucel (hydroxypropylcellulose) (HPC)) was 98 % of control and 107 % of control and the T/C (endpoint: median survival time, dose: 100.0 mg/kg/injection, schedule: Q01DX009 (ip), vehicle: Klucel (hydroxypropylcellulose) (HPC)) was 103 % of control and 109 % of control. The T/C (endpoint: median survival time, dose: 200.0 mg/kg/injection, schedule: Q01DX009 (ip), vehicle: Klucel (hydroxypropylcellulose) (HPC)) was 97 % of control and 110 % of control and the T/C (endpoint: median survival time, dose: 400.0 mg/kg/injection, schedule: Q01DX009 (ip), vehicle: Klucel (hydroxypropylcellulose) (HPC)) was 90 % of control and 108 % of control.
In the case of `c1ccc2n[se]nc2c1`, the T/C (endpoint: mean survival time, dose: 3.13 mg/kg/injection, schedule: Q01DX009 (ip), vehicle: saline) was 98 % of control, the T/C (endpoint: mean survival time, dose: 3.13 mg/kg/injection, schedule: Q04DX003 (ip), vehicle: saline) was 97 % of control and the T/C (endpoint: mean survival time, dose: 6.25 mg/kg/injection, schedule: Q01DX009 (ip), vehicle: saline) was 94 % of control. For the same compound, the T/C (endpoint: mean survival time, dose: 6.25 mg/kg/injection, schedule: Q04DX003 (ip), vehicle: saline) was 101 % of control, the T/C (endpoint: mean survival time, dose: 12.5 mg/kg/injection, schedule: Q01DX009 (ip), vehicle: saline) was 96 % of control and the T/C (endpoint: mean survival time, dose: 12.5 mg/kg/injection, schedule: Q04DX003 (ip), vehicle: saline) was 103 % of control.
For `OCC(O)COCc1ccccc1` (stereo not drawn), the T/C [5] was 94 % of control, the T/C [7] was 94 % of control and the T/C [9] was 96 % of control.
With `NC1CCCCC1N.O=S(=O)([O-])c1ccccc1S(=O)(=O)[O-].[Pt+4]` the T/C (endpoint: median survival time, dose: 1.56 mg/kg/injection, schedule: Q04DX003 (ip), vehicle: saline) was 105 % of control, the T/C (endpoint: median survival time, dose: 6.25 mg/kg/injection, schedule: Q04DX003 (ip), vehicle: saline) was 212 % of control and 216 % of control and the T/C (endpoint: median survival time, dose: 12.5 mg/kg/injection, schedule: Q04DX003 (ip), vehicle: saline) was 212 % of control and 361 % of control. For the same compound, the T/C (endpoint: median survival time, dose: 25.0 mg/kg/injection, schedule: Q04DX003 (ip), vehicle: saline) was 244 % of control and 375 % of control and the T/C (endpoint: median survival time, dose: 50.0 mg/kg/injection, schedule: Q04DX003 (ip), vehicle: saline) was 180 % of control.
`C=CN1CCCC1=O` (tested in a mixture with another compound) was tested, and the T/C [1] was 95 % of control, the T/C [2] was 91 % of control and the T/C [3] was 98 % of control.
